Measurements: PMC12475274, “Harnessing indole scaffolds to identify small-molecule IRE1α inhibitors modulating XBP1 mRNA splicing” (Nature Communications, 2025)
“And” between values parts separate entries of the source, which are not always exact repeats. Identical values can stand only once. “Also recorded” adds a separate entry of the source. Like-named read-outs stand apart in the source and are kept apart here.

Tests used:
p-IRE1α = biological target: T1, p-IRE1α (Homo sapiens, UniProt O75460); assay: Gel-based RNA-cleavage assay; type: biochemical
T1 construct: Human IRE1α kinase and RNase domain (residues 547–977) was subcloned into pLIB plasmid; His tag (with TEV cleavage site) (N, cleaved yes); made in house; host or cells: Sf9 insect cells, baculovirus (Bac-to-Bac)
T1 sequence (O75460 547-977): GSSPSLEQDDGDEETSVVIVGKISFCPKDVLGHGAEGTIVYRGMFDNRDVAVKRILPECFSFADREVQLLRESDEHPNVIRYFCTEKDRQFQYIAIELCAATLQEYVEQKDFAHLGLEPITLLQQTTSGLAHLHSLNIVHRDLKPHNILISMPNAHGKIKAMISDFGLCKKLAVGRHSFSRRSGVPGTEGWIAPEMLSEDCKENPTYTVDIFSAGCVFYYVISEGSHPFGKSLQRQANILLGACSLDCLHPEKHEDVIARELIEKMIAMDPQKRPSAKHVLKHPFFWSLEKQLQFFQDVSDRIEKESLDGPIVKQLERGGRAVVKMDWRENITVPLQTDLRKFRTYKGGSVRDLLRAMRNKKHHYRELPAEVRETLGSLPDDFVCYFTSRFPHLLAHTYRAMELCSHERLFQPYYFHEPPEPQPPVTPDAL
Experimental: Purified p-IRE1α with a final concentration of 10 nM was preincubated with the indicated compounds for 30 min at room temperature, then 50 nM FAM and BHQ-labeled XBP1 substrate were added to the reaction. The reaction was further incubated for 45 min at room temperature and then mixed with 6× TBE loading dye (45% H2O, 40 % glycerol, 15% 10× TBE, 0.1% bromphenol blue). 5 μL sample was loaded to 15% pre-runed urea-PAGE, and the gel was run in pre-warmed (~60 °C) 1× TBE buffer buffer in the dark. The gel fluorescence was detected and imaged using the ChemiDoc MP imaging system (Bio-Rad).

IRE1α (ERN1) = IRE1α (ERN1) (Homo sapiens, UniProt O75460); assay: LanthaScreen Eu kinase binding assay, IRE1α; conditions: for inhibition at 5.56 µM: Conc. 5560 nM; for inhibition at 5.56 µM / inhibition at 16.7 µM / inhibition at 50 µM: duplicates; for inhibition at 16.7 µM: Conc. 16700 nM; for inhibition at 50 µM: Conc. 50000 nM
IRE1α (ERN1), sequence (O75460 19-977): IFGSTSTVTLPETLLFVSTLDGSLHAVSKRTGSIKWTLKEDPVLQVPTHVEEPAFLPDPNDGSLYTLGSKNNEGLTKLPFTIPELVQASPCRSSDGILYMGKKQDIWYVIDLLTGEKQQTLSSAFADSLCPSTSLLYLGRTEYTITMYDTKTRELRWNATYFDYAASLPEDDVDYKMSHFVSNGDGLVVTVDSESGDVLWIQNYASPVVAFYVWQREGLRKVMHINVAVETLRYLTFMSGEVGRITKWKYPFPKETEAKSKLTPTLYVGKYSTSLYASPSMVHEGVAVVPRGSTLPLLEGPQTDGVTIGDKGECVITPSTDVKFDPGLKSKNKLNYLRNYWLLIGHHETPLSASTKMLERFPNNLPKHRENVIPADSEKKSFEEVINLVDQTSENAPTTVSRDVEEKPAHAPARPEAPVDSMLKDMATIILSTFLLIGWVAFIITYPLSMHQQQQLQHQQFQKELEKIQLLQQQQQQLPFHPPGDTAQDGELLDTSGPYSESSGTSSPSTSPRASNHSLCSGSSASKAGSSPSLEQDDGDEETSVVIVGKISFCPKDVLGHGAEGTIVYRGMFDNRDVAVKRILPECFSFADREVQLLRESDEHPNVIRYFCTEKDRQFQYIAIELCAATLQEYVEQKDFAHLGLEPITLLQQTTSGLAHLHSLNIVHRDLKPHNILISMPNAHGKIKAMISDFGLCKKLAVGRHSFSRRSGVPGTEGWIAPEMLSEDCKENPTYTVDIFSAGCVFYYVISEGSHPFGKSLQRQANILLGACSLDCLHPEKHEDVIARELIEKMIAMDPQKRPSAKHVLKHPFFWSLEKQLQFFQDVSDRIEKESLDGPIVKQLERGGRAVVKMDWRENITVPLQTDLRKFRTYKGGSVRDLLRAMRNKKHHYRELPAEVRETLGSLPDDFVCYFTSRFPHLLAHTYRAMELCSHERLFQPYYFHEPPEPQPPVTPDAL
Experimental: LanthaScreen^TM Eu kinase binding assays were conducted by SelectScreen Kinase Profiling Services (Thermo Fisher) using Alexa Fluor conjugated kinase tracer, tagged kinase protein, and Eu-labeled anti-tag antibody. The binding of the tracer to the kinase will form the tracer-kinase complex, resulting in a high FRET signal with the Eu-labeled anti-tag antibody. Displacement of the tracer by a kinase inhibitor led to a decreased FRET signal. […] Buffer A containing 50 mM HEPES pH 7.5, 0.01% BRIJ-35, 10 mM MgCl2, and 1 mM EGTA was used.
Kinase profiling was conducted by the SelectScreen Kinase Profiling Services (Thermo Fisher), using Z′-LYTE, Adapta, or LanthaScreen Eu Kinase Binding Assay for different kinases. The kinome phylogenetic tree was generated using the KinMap web portal.

[1] = tested on: IRE1α protein in MDA-MB-231 cells; assay: Western blot of IRE1α protein level, MDA-MB-231; type: cell-based, human
Experimental: (§1) A549 cells and MDA-MB-231 Cells were harvested and seeded into 6-well plates with a density of 8 × 10^5 cells per well and cultured overnight. […]. Protein concentrations were measured using a BCA protein assay kit (Thermo Scientific, 23227) and all samples were diluted to the same protein concentration. Each sample with 40 μg of total protein was loaded onto a 4–15% MP stain-free gel (Bio-Rad, 4568085) and separated in tris-glycine-SDS running buffer. The proteins were transferred onto a 0.45 μm PVDF membrane (Bio-Rad, 1704274) using the Trans-Blot Turbo Transfer System with the preprogrammed standard SD protocol (up to 1.0 A; 25 V; 30 min). Membranes were blocked with 5% skim milk (Roth, T145.2) in PBST buffer, then incubated with primary antibody IRE1α (Cell Signaling Technology, #3294 s, 1:1000), XBP1s (Cell Signaling Technology, #12782 s, 1:1000) GAPDH (Proteintech, 10494-1-AP, 1:6000) overnight at 4 °C with shaking. After incubation, membranes were washed with PBST and incubated with the Goat Anti-Rabbit (Proteintech, SA00001-2, 1:6000) antibody at room temperature for 1 h. After washing with PBST, the membranes were visualized using Amersham ECL Prime Western Blotting Detection Kit (Cytiva, RPN2232) and imaged with a ChemiDoc MP imaging system (Bio-Rad).

[2] = tested on: IRE1α protein in A549 cells; assay: Western blot of IRE1α protein level, A549; type: cell-based, human
Experimental: as §1

[3] = tested on: XBP1s protein in MDA-MB-231 cells; assay: Western blot of XBP1s protein level, MDA-MB-231; type: cell-based, human
Experimental: as §1

[4] = tested on: XBP1 mRNA splicing in A549 cells; assay: RT-qPCR of ER stress-induced XBP1 mRNA splicing, A549; type: cell-based, human; conditions: for Relative XBP1s/Actin: Fig. 7a, 0.5μg/mL Tm, individual replicates
Experimental: A549 cells, HCT 116 cells, and HT-29 cells were collected and seeded in 6-well plates at a density of 5 × 10^5 cells per well and cultured overnight to attach, then treated with compound or DMSO for 2 h, then 0.5 μg/mL final concentration of tunicamycin (Tm, MP Biomedi, 0215002805) were added to induce the ER stress for 2 h. After treatment, total RNA was purified using an RNeasy mini kit (Qiagen, 74106). 500 ng of total RNA was used for reverse transcription using the High-Capacity cDNA Reverse Transcription Kits (Thermo Fisher, 4368814). cDNA was diluted 1: 5 using RNase-free water, and 1 μL CDNA was used for each qPCR reaction. The qPCR was performed using PowerUp™ SYBR™ Green Master Mix (Thermo Fisher, A25742) with 10 µL reaction volume using Bio-Rad CFX96 Real-Time PCR Detection System following the standard cycling mode (primer Tm ≥ 60 °C) on the manufacturer’s protocol. Data was analyzed using the 2^- ΔΔCt method. The primers used are listed in Supplementary Table S3. The inhibition % was calculated by using the equation: inhibition% = 100× (normalized Tm control - normalized of the sample)/(normalized Tm control - normalized DMSO control). Tm control: Cells treated with tunicamycin; DMSO control: Cells treated with DMSO only.

[5] = tested on: XBP1s protein in A549 cells; assay: Western blot of XBP1s protein level, A549; type: cell-based, human; conditions: 2 h compound, then 1 μg/mL tunicamycin 4 h
Experimental: as §1

HCT 116 cells = assay: Cell viability assay (CCK-8), HCT 116; type: cell-based, human; conditions: HCT 116; for inhibition at 50 µM: Homo sapiens, read-out: antiproliferation, inhibition at highest tested concentration
Experimental: Cells were collected and seeded into 96-well plates at a density of 2000–4000 cells per well and cultured overnight to allow cells to adhere. After adherence, cells were treated with the indicated compounds for 72 h. Then 20 μL CCK-8 solution (Vazyme, A311) was added into each well and incubated at 37 °C for 2–4 h. Absorbance was detected at a wavelength of 450 nm using a TECAN plate reader. Cell viability was calculated with the equation: Cell viability (%) = 100(Absorbance of treated cell - Absorbance of Blank control)/ (Absorbance of DMSO-treated cells - Absorbance of Blank control); Blank control: medium and CCK-8 solution, no cells.

[6] = read-out: IRE1a Kinase Displacement(%)
[7] = IRE1α kinase domain, read-out: IC50 (kinase binding), LanthaScreen Eu kinase binding

Row | SMILES | inhibition of p-IRE1α RNase activity in gel-based cleavage assay (p-IRE1α) | inhibition at 5.56 µM (IRE1α (ERN1); [6]) [%] | inhibition at 16.7 µM (IRE1α (ERN1); [6]) [%] | inhibition at 50 µM (IRE1α (ERN1); [6]) [%] | IC50 (IRE1α (ERN1); [7]) [nM] | effect on IRE1α protein level [1] | effect on IRE1α protein level [2] | effect on ER stress-induced XBP1s protein [3] | effect on ER stress-induced XBP1s protein [5] | cytotoxicity (HCT 116 cells) | inhibition at 50 µM (HCT 116 cells) [%] | further results
1 | COc1ccc2c(c1)c(CCC(=O)O)c(C)n2C(=O)c1ccc(Cl)cc1 [IA01] | concentration-dependently inhibited | 50 | 63 | 70 | 2470 |  |  |  |  |  |  | 
2 | Cc1ccc2c(NS(=O)(=O)c3ccccc3Cl)cccc2c1Oc1ncccc1-c1ccnc(N[C@H]2CCCNC2)n1 [KIRA8] |  |  |  |  |  | did not affect | did not affect |  |  |  |  | 
3 | COc1ccc2c(c1)c(CCC(=O)O)c(C)n2C(=O)c1ccccc1 [IA64] | inhibited p-IRE1α activity; also recorded: concentration-dependently inhibited | 104 | 98 | 109 | 1100 |  |  |  |  |  |  | 
4 | CCOC(=O)CCc1c(C)n(C(=O)c2ccccc2)c2ccc(Br)cc12 [IAPD1] |  |  |  |  |  | did not affect | did not affect | inhibited the XPB1s protein level | inhibited the XPB1s protein level | did not show cytotoxicity | < 30 | binding to IRE1α kinase domain in LanthaScreen assay (IRE1α (ERN1)): did not show any detectable activity; inhibition at 0.0686 µM (IRE1α (ERN1); 0.0686 μM, read-out: IRE1a Kinase Displacement(%)): 11.5%; binding to IRE1α kinase domain in LanthaScreen assay (IRE1α (ERN1); listed as IADP1): did not show any detectable; IC50 (IRE1α (ERN1); read-out: IC50 (Kinase), LanthaScreen kinase binding/displacement): > 50000 nM; IC50 ([4]; Homo sapiens, A549 cells, tunicamycin, read-out: cellular IC50, ER stress-induced XBP1 mRNA splicing): 180 nM; improvement of the cellular activity in inhibiting XBP1 mRNA splicing ([4]; prodrug versus IA107): 50 fold
5 | CCOC(=O)Nc1cccc2c(Oc3ncccc3-c3ccnc(N[C@H]4CCCNC4)n3)c(C)ccc12 [Compound G1749, reference compound] |  |  |  |  |  | did not affect | did not affect | partially inhibited | partially inhibited |  |  | 
6 | Cc1c(CCC(=O)O)c2cc(Br)ccc2n1C(=O)c1ccccc1 [IA107] | concentration-dependently inhibited | 88 | 94 | 96 | 768 |  |  |  |  | did not show cytotoxicity | < 30 | inhibition at 5 µM (IRE1α (ERN1); kinase profiling, ERN1, LanthaScreen Binding, IA107 at 5 μM): 91%; inhibition of ER stress-induced XBP1 mRNA splicing ([4]; A549 cells, 2 h pre-treatment, 2 h tunicamycin): concentration-dependently inhibited; Relative XBP1s/Actin ([4]; 5 μM): 3.514 and 3.6054 and 3.452 and 3.1438; Relative XBP1s/Actin ([4]; 10 μM): 3.066 and 2.696 and 2.897 and 2.792; Relative XBP1s/Actin ([4]; 25 μM): 2.48 and 2.329 and 2.338 and 2.263; Relative XBP1s/Actin ([4]; 50 μM): 1.745 and 1.521 and 1.514 and 1.455
